Test results taken from patent US12492173B2, “Herbicidal substituted N-tetrazolyl aryl carboxamides” (Bayer Aktiengesellschaft, priority 2019, dated 2025).

Tests used:
Assay type in all cases: in vivo
Lolium multiflorum = test: Pre-emergence herbicidal action, LOLMU; conditions: dosage 320 g/ha, scored visually after 3 weeks vs untreated controls (100% = plants have died)
From the text: 1. Pre-Emergence Herbicidal Action Against Harmful Plants Seeds of monocotyledonous and dicotyledonous weed plants and crop plants are laid out in sandy loam soil in wood-fiber pots and covered with soil. The compounds of the invention, formulated in the form of wettable powders (WP) or as emulsion concentrates (EC), are then applied to the surface of the covering soil in the form of an aqueous suspension or emulsion at a water application rate equating to 600 to 800 l/ha, with addition of 0.2% wetting agent. After the treatment, the pots are placed in a greenhouse and kept under good growth conditions for the trial plants. The damage to the test plants is scored visually after a test period of 3 weeks by comparison with untreated controls (herbicidal activity in percent (%): 100% activity=the plants have died, 0% activity=like control plants). […] The tables below illustrate, in an exemplary manner, the […] herbicidal action of the compounds according to the invention, the herbicidal activity being stated in percent. [table] In the experiments that follow, herbicidal action of numerous inventive compounds and the known compounds that are structurally closest from D1 (WO 2012/028579 A1) and D2 (WO 2018/202535 A1) were compared under the above-specified conditions by the pre-emergence and post-emergence method. The example numbers given in the tables relate to the compounds disclosed in the respective documents. In addition to the compounds disclosed in D1 and D2, the following compounds V-1 to V-14 that are encompassed by D1 or D2 but are not compounds specified therein were used in the comparative experiments: • V-1: 2-(methylsulfanyl)-3-(methylsulfinyl)-N-(1-methyl-1H-tetrazol-5-yl)-4-(trifluoromethyl)benzamide • V-2: 2-(methylsulfanyl)-3-(methylsulfonyl)-N-(1-methyl-1H-tetrazol-5-yl)-4-(trifluoromethyl)benzamide • V-3: 2,3-bis(ethylsulfanyl)-N-(1-methyl-1H-tetrazol-5-yl)-4-(trifluoromethyl)benzamide • V-4: 2-chloro-3-(ethylsulfanyl)-N-(1-methyl-1H-tetrazol-5-yl)-4-(trifluoromethyl)benzamide • V-5: 2-chloro-4-iodo-3-(methylsulfanyl)-N-(1-methyl-1H-tetrazol-5-yl)benzamide • V-6: 2-chloro-4-iodo-3-(methylsulfinyl)-N-(1-methyl-1H-tetrazol-5-yl)benzamide • V-7: 2-chloro-4-iodo-3-(methylsulfonyl)-N-(1-methyl-1H-tetrazol-5-yl)benzamide • V-8: 2-bromo-3-(methylsulfanyl)-N-(1-methyl-1H-tetrazol-5-yl)-4-(trifluoromethyl)benzamide • V-9: 2-bromo-3-(methylsulfinyl)-N-(1-methyl-1H-tetrazol-5-yl)-4-(trifluoromethyl)benzamide • V-10: 2-bromo-3-(methylsulfonyl)-N-(1-methyl-1H-tetrazol-5-yl)-4-(trifluoromethyl)benzamide • V-11: 2-bromo-3-(ethylsulfanyl)-N-(1-methyl-1H-tetrazol-5-yl)-4-(trifluoromethyl)benzamide • V-12: 2-bromo-3-(ethylsulfinyl)-N-(1-methyl-1H-tetrazol-5-yl)-4-(trifluoromethyl)benzamide • V-13: 2-bromo-3-(ethylsulfonyl)-N-(1-methyl-1-1H-tetrazol-5-yl)-4-(trifluoromethyl)benzamide • V-14: 2-cyclopropyl-3-(ethylsulfanyl)-N-(1-methyl-1H-tetrazol-5-yl)-4-(trifluoromethyl)benzamide Herbicidal Pre-Emergence Action: […]

Veronica persica = test: Pre-emergence herbicidal action, VERPE; set-up: key to Herbicidal action against VERPE: % activity: 100 = plants have died, 0 = like control plants; conditions: for Herbicidal action against VERPE: comparative experiment; for herbicidal activity VERPE: dosage 320 g/ha, scored visually after 3 weeks vs untreated controls (100% = plants have died)
Summary of the method: (§1)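 Herbicidal activity is expressed in percent, scored by eye after a 3-week greenhouse period, with 0% matching untreated plants and 100% meaning death. Compounds, as wettable powders or emulsion concentrates, are applied pre-emergence to the covering soil.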

Matricaria inodora = test: Pre-emergence herbicidal action, MATIN; set-up: key to Herbicidal action against MATIN: % activity: 100 = plants have died, 0 = like control plants; conditions: for Herbicidal action against MATIN: comparative experiment; for herbicidal activity MATIN: dosage 320 g/ha, scored visually after 3 weeks vs untreated controls (100% = plants have died)
Summary of the method: as §1

Viola tricolor = test: Post-emergence herbicidal action, VIOTR; set-up: key: % herbicidal action vs untreated; 100 = plants died, 0 = like control; conditions: for Herbicidal action against VIOTR: comparative experiment
Summary of the method: (§2)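 Greenhouse post-emergence test: weeds sown in sandy loam were sprayed once at one leaf, 2 to 3 weeks from sowing, with aqueous WP or EC preparations carrying 0.2% wetting agent. Effect is scored visually after about 3 weeks.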

Cyperus esculentus = test: Post-emergence herbicidal action, CYPES; set-up: key: % herbicidal action vs untreated; 100 = plants died, 0 = like control
Summary of the method: as §2

[1] = post-emergence, 20 g of a.i./ha

Row | Structure (SMILES) | herbicidal activity LOLMU (Lolium multiflorum) | Herbicidal action against VERPE (Veronica persica; 20 g of a.i./ha) | herbicidal activity VERPE (Veronica persica) | Herbicidal action against MATIN (Matricaria inodora; 20 g of a.i./ha) | herbicidal activity MATIN (Matricaria inodora) | herbicidal action VIOTR (Viola tricolor; Dosage 80 g/ha) | Herbicidal action against VIOTR (Viola tricolor; post-emergence, 5 g of a.i./ha) | herbicidal action CYPES (Cyperus esculentus; Dosage 80 g/ha) | herbicidal action VIOTR (Viola tricolor; post-emergence, dosage 80 g/ha) | herbicidal action CYPES (Cyperus esculentus; post-emergence, dosage 80 g/ha) | Herbicidal action against VERPE (Veronica persica; 80 g of a.i./ha) | Herbicidal action against MATIN (Matricaria inodora; 80 g of a.i./ha) | Herbicidal action against VIOTR (Viola tricolor; [1]) | Herbicidal action against CYPES (Cyperus esculentus; comparative experiment, post-emergence, 20 g of a.i./ha)
1 | CCSCc1c(C(F)(F)F)ccc(C(=O)Nc2nnnn2C)c1SCC [Example 1-182] | 90% | 90 | 100% | 80 | 100% | 100 | 90 |  |  |  |  |  |  | 
2 | CCn1nnnc1NC(=O)c1ccc(C(F)F)c(CSC)c1Cl [Example 2-320] | 90% |  | 100% |  | 100% | 100 |  | 80 |  |  |  |  |  | 
3 | CCn1nnnc1NC(=O)c1ccc(C(F)F)c(CS(=O)(=O)CC)c1Cl [Example 2-325] | 100% |  | 100% |  | 100% | 100 |  |  |  |  |  |  |  | 
4 | CCSCc1c(C(F)F)ccc(C(=O)Nc2nnnn2C)c1Cl [Example 1-323] | 100% |  | 100% |  | 90% |  |  |  | 100% | 80% |  |  |  | 
5 | CCSCc1c(C(F)(F)F)ccc(C(=O)Nc2nnnn2C)c1Cl [Example 1-299] | 100% | 100 | 100% | 90 | 100% |  |  |  | 100% | 80% |  |  |  | 
6 | CCSCc1c(C(F)F)ccc(C(=O)Nc2nnnn2CC)c1Cl [Example 2-323] | 100% |  | 100% |  | 100% |  |  |  | 100% | 80% |  |  |  | 
7 | CCS(=O)(=O)Cc1c(C(F)(F)F)ccc(C(=O)Nc2nnnn2C)c1Br [Example 1-385] | 100% |  | 100% |  | 100% |  |  |  | 100% | 80% | 100 | 100 | 100 | 60
8 | CCCn1nnnc1NC(=O)c1ccc(C(F)(F)F)c(C[S+]([O-])CC)c1Br (centres unmarked) [Example 3-384] | 90% |  | 100% |  | 100% | 100 |  |  |  |  |  |  |  | 
9 | CSCc1c(C(F)(F)F)ccc(C(=O)Nc2nnnn2C)c1C [Example 1-83] | 100% |  | 100% |  | 100% |  |  |  | 90% | 90% |  |  |  | 
10 | CCCn1nnnc1NC(=O)c1ccc(C(F)F)c(CS(C)(=O)=O)c1Cl [Example 3-322] | 80% |  | 100% |  | 100% |  |  |  |  |  |  |  |  | 
11 | CCCn1nnnc1NC(=O)c1ccc(C(F)F)c(CSCC)c1Cl [Example 3-323] | 100% |  | 100% |  | 100% | 90 |  |  |  |  |  |  |  | 
12 | Cn1nnnc1NC(=O)c1ccc(C(F)F)c(CS(C)(=O)=O)c1Cl [Example 1-322] | 100% |  | 100% |  | 100% |  |  |  | 100% |  |  |  |  | 
13 | CCn1nnnc1NC(=O)c1ccc(C(F)(F)F)c(C[S+]([O-])CC)c1Br (centres unmarked) [Example 2-384] | 100% |  | 100% |  | 100% |  |  |  | 100% |  |  |  |  | 
14 | CC[S+]([O-])Cc1c(C(F)(F)F)ccc(C(=O)Nc2nnnn2C)c1Br (racemic) [Example 1-384] | 100% |  | 100% |  | 100% |  |  |  | 100% | 90% |  |  | 100 | 
15 | CCn1nnnc1NC(=O)c1ccc(C(F)(F)F)c(CS(C)(=O)=O)c1Cl [Example 2-298] | 90% |  | 100% |  | 100% | 100 |  |  |  |  |  |  |  | 
16 | CCCn1nnnc1NC(=O)c1ccc(C(F)(F)F)c(CS(C)(=O)=O)c1Cl [Example 3-298] | 90% |  | 100% |  | 100% | 100 |  |  |  |  |  |  |  | 
17 | CCn1nnnc1NC(=O)c1ccc(C(F)(F)F)c(C[S+](C)[O-])c1Cl (centres unmarked) [Example 2-297] | 90% |  | 100% |  | 100% |  |  |  | 100% |  |  |  |  | 
18 | CCS(=O)(=O)Cc1c(C(F)F)ccc(C(=O)Nc2nnnn2C)c1Cl [Example 1-325] | 100% |  | 100% |  | 100% | 100 |  | 80 |  |  |  |  |  | 
19 | CCn1nnnc1NC(=O)c1ccc(C(F)F)c(CS(C)(=O)=O)c1Cl [Example 2-322] | 100% |  | 100% |  | 90% |  |  |  | 100% |  |  |  |  | 
20 | CCn1nnnc1NC(=O)c1ccc(C(F)(F)F)c(CS(=O)(=O)CC)c1Br [Example 2-385] | 100% |  | 100% |  | 100% |  |  |  | 100% | 90% |  |  |  | 
21 | CCSCc1c(C(F)(F)F)ccc(C(=O)Nc2nnnn2C)c1Br [Example 1-383] | 100% |  | 100% |  | 100% |  |  |  | 100% |  | 100 |  | 100 | 
